Laboratory results as given in patent US4988735A, “Ethylene diamine active cardiovascular therapy” (Simes, priority 1987, dated 1991).
Read-outs that look alike come from different tables or passages of the source.

Assays:
systemic hemodynamics = experiment: Effects on systemic hemodynamics in dogs anaesthetized with pentobarbital (i.v. bolus); type: in vivo, dog; details: for Heart rate: average ± SD, basal: Compound II 167±15, Compound A 178±11; for Heart index: basal: Compound II 1.547±0.147, Compound A 1.820±0.311; for Total peripheral resistances: basal: Compound II 78.497±8.587 (** p<0.01), Compound A 63.985±5.037; for Arterial pressure, minimum: basal: Compound II 101±5 (** p<0.01), Compound A 97±11; for Arterial pressure, medium: basal: Compound II 117±7 (** p<0.01), Compound A 112±12; for Maximum ejection rate: basal: Compound II 126.79±14.41 (* p<0.05), Compound A 138.59±21.74; for Arterial pressure, maximum: basal: Compound II 149±11 (* p<0.05), Compound A 143±14
Protocol: (§1) Catheters for detection of arterial pressure and flow electromagnetic transducers for measuring heart flow (heart index) and coronary flow were inserted in dogs anaesthetized with pentobarbital. The resistances were calculated from the pressure/flow ratio.

vascular smooth muscle = details: according to data in European Patent No. 41,757; cited from earlier work
coronary hemodynamics = experiment: Effects on coronary hemodynamics in dogs anaesthetized with pentobarbital (i.v. bolus); type: in vivo, dog
Protocol: as §1

[1] = tested on: serotonin-induced spasm of mesenteric artery; experiment: Antagonism towards vascular spasms induced by serotonin, mesenteric artery strips; type: cell-based; details: Krebs solution 37 °C, fiduciary limits 0.15-0.31
Protocol: (§2) (a) Antagonism towards vascular spasms induced by serotonin. Vascular strips of mesenteric artery and rabbit aorta were put into baths for isolated organ containing Krebs solutions at 37° C. and aerated with a mixture of oxygen and carbon dioxide 95:5.
(§3) The addition of serotonin to the bath causes a spasm which is detected by a strength transducer.
(§4) The antagonistic activity of compound II, evaluated as inhibiting concentration (IC50), gave the following results: […]

[2] = tested on: serotonin-induced spasm of rabbit aorta; experiment: Antagonism towards vascular spasms induced by serotonin, aorta strips; type: cell-based; details: Oryctolagus cuniculus, Krebs solution 37 °C, fiduciary limits 0.05-0.56
Protocol: as §2, §3, §4

[3] = tested on: serotonin-enhanced aggregation of dog blood platelets; experiment: Enhancement in aggregation induced by serotonin, dog blood platelets; type: cell-based; details: Canis lupus familiaris, Platelet, dihydrochloride, read-out: Threshold Inhibiting Concentration (TlC)
Protocol: (b) Enhancement in aggregation induced by serotonin.
The addition of 5HT to dog blood platelets causes the aggregation of non-aggregating concentrations of adenosine diphosphate, collagen and adrenaline.
The effects of compound II (dihydrochloride) expressed as single concentration, were evaluated by pre-incubating the blood platelets with different concentrations of the product and expressed as Threshold Inhibiting Concentration (TlC): […]

[4] = tested on: serotonin-induced shape change of rat blood platelets; experiment: Change of the shape of blood platelets induced by serotonin; type: cell-based; details: Platelet, pre-treated, dihydrochloride
Protocol: (c) Change of the shape of blood platelets induced by serotonin. The addition of serontonin to rat blood platelets causes a change in the shape which is measured by an aggregometer as maximum decrease in light transmission.
Compund II (dihydrochloride) was tested by pre-treating the blood platelets with different concentrations of product and the activity was expressed as 50% inhibiting concentration (IC50).

[5] = tested on: arteriosclerotic plaques in aorta; experiment: Prevention of the formation of arteriosclerotic plaques in rabbits on hypercholesterolemic diet; type: in vivo, rabbit
Protocol: Rabbits HY/CR were feeded with iperchloesterolemic diet (2% (cholesterol) for 60 days at the end of which, by planimetry after colouring aorta with Sindon Black, the extent of arteriosclerotic plaques was evaluated. […]

[6] = tested on: smooth muscle cells isolated from rat aorta; experiment: Inhibition of arterial smooth muscle cell proliferation; type: cell-based
Protocol: A culture of smooth muscle cells was isolated by rat aorta incubated in the presence of the tested Compounds II, A, B, C and D for 24, 48 and 72 hours in a minimal essential medium added with bovine fetal serum: at the above intervals the number of cells in the culture was counted by a hemocytometer and compared with the number of cells in a control culture.

serotonin = experiment: Specific antagonism of serotonin effects on blood platelets and vessels (general statement)
Description: Evaluation of specific antagonistic activity to serotonin (5TH) effects

## COc1cc(CN(C)CCN(C)CCC(c2ccccc2)c2ccccc2)cc(OC)c1OC [Compound A, N,N'-dimethyl-N-(3,4,5-trimethoxybenyl)-N'-(3,3-diphenyl-propyl)-ethylenediamine, reference compound]
Systemic hemodynamics; dog, 1 mg/kg (four times higher dose)
  Hemodynamic effects compared with Compound II (in words): Comparable effects to compound II
Systemic hemodynamics; dog, Compound A at 1 mg/kg
  Cardiac output (in words): decrease in cardiac output
Systemic hemodynamics; dog, i.v. bolus 0.25 mg/kg
  Effects on peripheral vascular resistances and on arterial pressure (in words): borderline effects
  Heart rate: 147±8 beats/min
  Heart index: 1.615±0.237 l/min/m^2
  Total peripheral resistances: 45.023±2.849 mmHg/l/min.
  Arterial pressure, minimum: 50±3 mmHg
  Arterial pressure, medium: 71±8 mmHg
  Maximum ejection rate: 135.58±17.55 ml/sec/m^2
  Arterial pressure, maximum: 98 mmHg
Systemic hemodynamics; dog, i.v. bolus 0.25 mg/kg, Compound A, basal 10.09±1.29 (* p<0.05)
  Systolic index: 11.11±1.49 ml/beatsm^2
Vascular smooth muscle
  Anti-spasmodic activity (in words): most active compound

## COc1cc(CN(C)CCN(C)CCC(c2ccc(F)cc2)c2ccc(F)cc2)cc(OC)c1OC [Compound II, N,N'-dimethyl-N-(3,4,5-trimethoxybenzyl)-N'-[3,3-di-(4-fluorophenyl)-propyl]-ethylenediamine]
Systemic hemodynamics; anesthetized dogs
  Cardiac output (in words): increase in cardiac output
  Heart rate (in words): without a contemporaneous increase in heart rate
  Systemic vascular resistances (in words): decrease in systemic and coronary vascular resistances
Systemic hemodynamics; dog, i.v. bolus 0.25 mg/kg, Compound II, basal 9.51±1.24 (* p<0.05)
  Systolic index: 13.39±1.00 ml/beats/m^2
Systemic hemodynamics; dog, i.v. bolus 0.25 mg/kg
  Heart rate: 156±12 beats/min
  Heart index: 2.088±0.240 l/min/m^2
  Total peripheral resistances: 44.366±4.200 mmHg/l/min.
  Arterial pressure, minimum: 72±2 mmHg
  Arterial pressure, medium: 89±3 mmHg
  Maximum ejection rate: 174.77±10.27 ml/sec/m^2
  Arterial pressure, maximum: 130±6 mmHg
Coronary hemodynamics; anesthetized dogs
  Coronary vascular resistances (in words): decrease in systemic and coronary vascular resistances
Coronary hemodynamics; dog, coronary hemodynamics, i.v. bolus 0.25 mg/kg, basal 103±6
  Arterial pressure, minimum: 87±3 mmHg
Coronary hemodynamics; dog, coronary hemodynamics, i.v. bolus 0.25 mg/kg, basal 116±4
  Arterial pressure, medium: 102±5 mmHg
Coronary hemodynamics; dog, coronary hemodynamics, i.v. bolus 0.25 mg/kg, basal 140±14
  Heart rate: 143±15 beats/min
Coronary hemodynamics; dog, coronary hemodynamics, i.v. bolus 0.25 mg/kg, basal 145±3
  Arterial pressure, maximum: 142±5 mmHg
Coronary hemodynamics; dog, i.v. bolus 0.25 mg/kg, basal 2.887±0.381, * p<0.05
  Average coronary resistances: 1.301±0.141 mmHg/ml/min
Coronary hemodynamics; dog, i.v. bolus 0.25 mg/kg, basal 41.3±3.7, * p<0.05
  Left circumflex coronary artery flow: 101.6 ± 10.8 mL/min
[1]
  IC50: 0.22 µM
[2]
  IC50: 0.16 µM
[3]; adenosine diphosphate + serotonin
  minimal effective concentration: 37 ± 20 µM
[3]; adrenaline + serotonin
  minimal effective concentration: 11 ± 5.4 µM
[3]; collagen + serotonin
  minimal effective concentration: 5.6 ± 4 µM
[4]
  IC50: 8.35 ± 1.35 µM
[5]; rabbit, 1 mg/kg s.c. twice a day, 60 days
  Reduction of the area of plaques in aorta: 40%
[5]; rabbit, 3 mg/kg s.c. twice a day, 60 days
  Reduction of the formation / area of plaques in aorta: 60%
[5]; rabbits on hypercholesterolemic diet
  Prevention of the formation of arteriosclerotic plaques (in words): able to prevent the formation of arteriosclerotic plaques
[6]
  Arterial smooth muscle cell proliferation (in words): inhibit arterial smooth muscle cell proliferation
[6]; 5 μM, 24, 48 and 72 hours
  Inhibition of cell proliferation (in words): inhibited meaningfully cell proliferation
[6]; rat aorta smooth muscle cells, 24, 48 and 72 hours (time of the IC50 not stated)
  IC50: 10 µM
serotonin
  Antagonism of serotonin effects on blood platelets and vessels (in words): able to antagonize, in a specific way, the effect of serotonin on blood platelets as well as on vessels
